The structures appear in SMILES notation.

One series deals with T1, σ1 receptor (Cavia porcellus, UniProt Q60492).
T1 construct: using guinea pig brain membrane homogenates (˜300 μg protein); from tissue; host or cells: guinea pig brain membrane homogenate
In words: σ1 receptor binding assay, [3H](+)-pentazocine competition. The following applies: guinea pig brain membrane homogenates, ~5 nM [3H](+)-pentazocine; mean ± SEM; read-out: σ1 binding affinity (Ki). How it is done:
(§1) This example illustrates in vitro binding studies with the compounds of the present teachings. In this example, in vitro binding studies can be conducted in order to measure the affinity of the target compounds for σ1 and σ2 receptors.
(§2) In these assays, pegylated sigma ligands of the present teachings can be dissolved in N,N-dimethylformamide (DMF), DMSO or ethanol, and can then be diluted in 50 mM Tris-HCl buffer containing 150 mM NaCl and 100 mM EDTA at pH 7.4 prior to performing σ1 and σ2 receptor binding assays Procedures for isolating the membrane homogenates and performing the σ1 and σ2 receptor binding assays have been described in detail previously (Xu, J., et al., Eur. J. Pharmacol. […] (1-3): 8-17, 2005). Briefly, the σ1 receptor binding assays can be conducted in 96-well plates using guinea pig brain membrane homogenates (˜300 μg protein) and ˜5 nM [^3H](+)-pentazocine (34.9 Ci/mmol, Perkin Elmer, Boston, Mass.). The total incubation time can be 90 min at room temperature. Nonspecific binding can be determined from samples that contain 10 μM of cold haloperidol. After 90 min, the reaction can be terminated by the addition of 150 μL of ice-cold wash buffer (10 mM Tris-HCl, 150 mM NaCl, pH 7.4) using a 96 channel transfer pipette (Fisher Scientific, Pittsburgh, Pa.). The samples can be harvested and filtered rapidly through a 96-well fiber glass filter plate (Millipore, Billerica, Mass.) that has been presoaked with 100 μL of 50 mM Tris-HCl buffer at pH 8.0 for 1 h. Each filter can be washed 3 times with 200 μL of ice-cold wash buffer, and the filter can be counted in a Wallac 1450 MicroBeta liquid scintillation counter (Perkin Elmer, Boston, Mass.).
(§3) Data from the competitive inhibition experiments can be modeled using nonlinear regression analysis to determine the concentration that inhibits 50% of the specific binding of the radioligand (IC50 value). Competitive curves can be best fit to a one-site fit and give pseudo-Hill coefficients of 0.6-1.0. Ki values can be calculated using the method of Cheng and Prusoff (Biochem. Pharmacol. 22: 3099-3108, 1973) and can be presented as the mean±1 SEM. For these calculations, one can use a Kd value of 7.89 nM for [^3H](+)-pentazocine and guinea pig brain; for [^3H]DTG and rat liver, for example 30.73 nM.

For the next series, the target named is T2, σ2 receptor (Rattus norvegicus, UniProt Q5U3Y7).
T2 construct: using rat liver membrane homogenates (˜300 μg protein); from tissue; host or cells: rat liver membrane homogenate
T2 sequence (Q5U3Y7 1-176): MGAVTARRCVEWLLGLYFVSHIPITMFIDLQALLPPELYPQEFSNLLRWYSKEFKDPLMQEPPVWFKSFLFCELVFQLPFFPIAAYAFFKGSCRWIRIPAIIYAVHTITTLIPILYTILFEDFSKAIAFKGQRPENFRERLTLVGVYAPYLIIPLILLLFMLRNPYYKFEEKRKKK
In words: σ2 receptor binding assay, [3H]DTG competition in the presence of (+)-pentazocine. The following applies: for Ki: rat liver membrane homogenates, ~5 nM [3H]DTG with 1 μM (+)-pentazocine, mean ± SEM, read-out: σ2 binding affinity (Ki); for Ratio (σ1/σ2): ratio of Ki σ1 to Ki σ2. Here is the method: as §1, §2
σ2 receptor binding assays can be conducted using rat liver membrane homogenates (˜300 μg protein) and ˜5 nM [^3H]DTG (58.1 Ci/mmol, Perkin Elmer, Boston, Mass.) in the presence of 1 μM (+)-pentazocine. The incubation time can be […] at room temperature. Nonspecific binding can be determined from samples that contain 10 μM of cold haloperidol. All other procedures can be identical to those described for the σ1 receptor binding assay above.
as §3

The test system of series [1] is EMT-6 mouse mammary adenocarcinoma tumor. In words: Biodistribution / tumor uptake of 18F-labeled compounds in tumor-bearing mice. The following applies: EMT-6 tumor-bearing female Balb/c mice, versus non-pegylated analog (m=1; X1=H; X2=Br), FIG. 2. The class given is in vivo. Here is the method: This example illustrates in vivo evaluation of compounds of the present teachings. All animal experiments can be conducted in compliance with the Guidelines for the Care and Use of Research Animals established by Washington University's Animal Studies Committee. EMT-6 mouse mammary adenocarcinoma cells (5×10^5 cells in 100 uL of phosphate-buffered saline) can be implanted subcutaneously in the scapular region of female Balb/c mice (˜2-month old and 17-22 g; Charles River Laboratories). The biodistribution studies can be initiated 7-10 days after implantation when the tumor size can be ˜0.2 cm^3 (˜200 mg).
For biodistribution studies, 10-120 μCi of an [^18F]-radiolabeled pegylated compound of the present teachings in 100-150 uL of saline can be injected via the tail vein into EMT-6 tumor-bearing female Balb/c mice. Groups of at least 4 mice can be used for each time point. At 5, 30, 60, and 120 min after injection, the mice can be euthanized, and samples of blood, lung, liver, kidney, muscle, fat, heart, brain, bone and tumor can be removed, weighed and counted in a Beckman Gamma 8000 well counter. After counting, the percentage of the injected dose per gram of tissue (% ID/g) can be calculated. The tumor/organ ratios can be calculated by dividing the % ID/g of the tumor by the % ID/g of each organ.
This example illustrates tumor uptake of ^18F-labeled pegylated compounds 6c, 6d and 6g versus a nonpegylated analog (m=1; X1=H; X2=Br).
In these experiments, various ^18F-labeled pegylated compounds of the present teachings as well as a non-pegylated analog were administered to tumor-bearing mice as described in Example 22. The pegylated compounds tested,
[drawing 27] were 6c (m=2; X1=H; X2=Br), 6d (m=3; X1=H; X2=Br) and 6g (m=2; X1=OCH3; X2=Br). A non-pegylated analog (m=1; X1=H; X2=Br) was also tested.

The next series concerns the target σ1 receptors (Homo sapiens, UniProt Q99720). The following applies: stated in words with literature references; cited from earlier work.
For another series, the target named is σ2 receptors (Homo sapiens, UniProt Q5BJF2). The conditions noted are these: stated in words with literature references; cited from earlier work.
Chain of σ2 receptors (Q5BJF2 whole entry): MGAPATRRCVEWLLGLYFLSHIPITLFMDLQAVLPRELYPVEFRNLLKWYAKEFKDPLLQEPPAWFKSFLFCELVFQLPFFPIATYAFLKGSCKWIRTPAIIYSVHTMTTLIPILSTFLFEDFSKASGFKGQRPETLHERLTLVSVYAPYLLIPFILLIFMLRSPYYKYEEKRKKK

T1 sequence (Q60492 whole entry): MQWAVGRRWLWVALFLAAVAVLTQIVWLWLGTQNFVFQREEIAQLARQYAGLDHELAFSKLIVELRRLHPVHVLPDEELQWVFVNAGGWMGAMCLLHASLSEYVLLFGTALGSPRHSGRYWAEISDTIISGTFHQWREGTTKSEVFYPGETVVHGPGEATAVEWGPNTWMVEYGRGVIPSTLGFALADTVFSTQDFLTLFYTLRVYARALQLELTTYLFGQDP
Chain of σ1 receptors (Q99720 whole entry): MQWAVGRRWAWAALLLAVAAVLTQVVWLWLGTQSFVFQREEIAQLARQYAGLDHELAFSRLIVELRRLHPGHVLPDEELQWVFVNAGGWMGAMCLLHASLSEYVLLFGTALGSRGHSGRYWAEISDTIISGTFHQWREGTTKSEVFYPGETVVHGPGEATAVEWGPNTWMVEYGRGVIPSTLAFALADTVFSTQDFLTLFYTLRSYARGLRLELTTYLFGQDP

What is called Ki is a dissociation constant, usually derived from enzyme kinetics or from competition with a known ligand. Consider `COc1cc2c(cc1OC)CN(CCCCNC(=O)c1cc(I)ccc1OCCOCCF)CC2` [6e], for which the Ki on σ1 receptor came to 451 ± 56 nM. At σ2 receptor, the Ki stood at 6.29 ± 0.6 nM and the “Ratio (σ1/σ2)” value stood at 72.
As to `COc1cc2c(cc1OC)CN(CCCCNC(=O)c1cc(Br)ccc1OCCOCCF)CC2` [6c, 5-Bromo-N-(4-(6,7-dimethoxy-3,4-dihydroisoquinolin-2(1H)-yl)butyl)-2-(2-(2-fluoroethoxy)ethoxy)benzamide], the Ki on σ1 receptor amounted to 1040 nM. Further, at σ2 receptor, the Ki was 1.38 ± 0.2 nM and the “Ratio (σ1/σ2)” value came out at 755. For the same molecule, in series [1], the rate of washout result was “slower rate of washout” and the tumor uptake result was “higher tumor uptake compared to the non-pegylated analog”.
As to `COc1cc2c(cc1OC)CN(CCCCNC(=O)c1cc(C)ccc1OCCOCCF)CC2` [6a, N-(4-(6,7-dimethoxy-3,4-dihydroisoquinolin-2(1H)-yl)butyl)-2-(2-(2-fluoroethoxy)ethoxy)-5-methylbenzamide], at σ1 receptor, the Ki worked out at 277 ± 38 nM. Besides, at σ2 receptor, the Ki is 6.75 ± 0.9 nM and the “Ratio (σ1/σ2)” value is recorded as 41.
On to `COc1cc2c(cc1OC)CN(CCCCNC(=O)c1cc(Br)cc(OC)c1OCCOCCF)CC2` [6g, 5-bromo-N-(4-(6,7-dimethoxy-3,4-dihydroisoquinolin-2(1H)-yl)butyl)-2-(2-(2-fluoroethoxy)ethoxy)-3-methoxybenzamide], for which, at σ1 receptor, the Ki was determined as 669 ± 101 nM. For the same molecule, on σ2 receptor, the inhibition constant Ki worked out at 4.67 ± 0.6 nM and the “Ratio (σ1/σ2)” value was 143. In addition, in series [1], the rate of washout result is listed as “slower rate of washout” and the tumor uptake result was “higher tumor uptake compared to the non-pegylated analog”.
With `COc1cc2c(cc1OC)CN(CCCCNC(=O)c1cc(C)ccc1OCCOCCOCCF)CC2` [6b, N-(4-(6,7-dimethoxy-3,4-dihydroisoquinolin-2(1H)-yl)butyl)-2-(2-(2-(2-fluoroethoxy)ethoxy)ethoxy)-5-methylbenzamide], on σ1 receptor, the Ki was 1920 nM. At σ2 receptor, the Ki stood at 10.1 ± 0.4 nM and the “Ratio (σ1/σ2)” value was found to be 190.
Turning to `O=C(Cc1cccc(Br)c1)NC1CCN(Cc2ccc(F)cc2)CC1` [Yun-143, N-(4-fluorobenzyl)piperidinyl-4-(3-bromophenyl)acetamide], the “affinity for σ1 receptors” value on σ1 receptors is listed as “high affinity”. Further, the “affinity for σ2 receptors” value on σ2 receptors is “high affinity”.
`COc1cc2c(cc1OC)CN(CCCCNC(=O)c1cc(Br)ccc1OCCOCCOCCF)CC2` [6d, 5-Bromo-N-(4-(6,7-dimethoxy-3,4-dihydroisoquinolin-2(1H)-yl)butyl)-2-(2-(2-(2-fluoroethoxy)ethoxy)ethoxy)benzamide]: at σ1 receptor, the Ki was determined as 1010 nM. For the same molecule, on σ2 receptor, the Ki turned out to be 9.8 ± 0.4 nM and the “Ratio (σ1/σ2)” value worked out at 103. Also, in series [1], the rate of washout result was “slower rate of washout” and the tumor uptake result is “higher tumor uptake compared to the non-pegylated analog”.
In the case of `COc1cc2c(cc1OC)CN(CCCCNC(=O)c1cc(Br)cc(OC)c1OCCOCCOCCF)CC2` [6h], the Ki at σ1 receptor was 9100 nM; on σ2 receptor, 33 nM. Besides, at σ2 receptor, the “Ratio (σ1/σ2)” value is 276.
Take `COc1cc2c(cc1OC)CN(CCCCNC(=O)c1cc(I)ccc1OCCOCCOCCF)CC2` [6f, N-(4-(6,7-dimethoxy-3,4-dihydroisoquinolin-2(1H)-yl)butyl)-2-(2-(2-(2-fluoroethoxy)ethoxy)ethoxy)-5-iodobenzamide]: the Ki on σ1 receptor was 1280 nM. Also, at σ2 receptor, the Ki is 7.47 ± 1.2 nM and the “Ratio (σ1/σ2)” value turned out to be 171.

The values are drawn from US8506927B2, “Pegylated fluorobenzamide analogues, their synthesis and use in diagnostic imaging” (Washington University, priority 2011, dated 2013).
